Where two headings read alike, the source gives them in different places.
Legend:
hA1AR = target: T1, hA1AR (Homo sapiens, UniProt P30542); assay: Radioligand binding competition, [3H]DPCPX, membranes from CHO-A1 cells; conditions: 1 μM, [3H]DPCPX, human CHO cells, n = 2
T1 sequence (P30542 1-326): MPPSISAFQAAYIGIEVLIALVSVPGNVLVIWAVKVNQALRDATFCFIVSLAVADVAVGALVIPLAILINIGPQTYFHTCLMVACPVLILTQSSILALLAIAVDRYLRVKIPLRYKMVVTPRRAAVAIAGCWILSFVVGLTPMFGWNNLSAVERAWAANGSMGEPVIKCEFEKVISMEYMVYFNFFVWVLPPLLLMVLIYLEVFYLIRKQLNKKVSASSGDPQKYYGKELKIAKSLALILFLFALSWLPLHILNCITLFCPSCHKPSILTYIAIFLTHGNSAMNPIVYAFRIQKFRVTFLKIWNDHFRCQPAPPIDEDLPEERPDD
Protocol: (§1) All ligands reported in Tables 1–5 were obtained and tested as racemic mixtures. The whole set was evaluated in silico with a combination of a Rdkit[37] PAINS filter and Instant JChem from Chemaxon (https://www.chemaxon.com), to rule out the possibility that these ligands can be promiscuous pan-assay interference compounds (PAINS) and to assess their bioavailability, respectively. […] The stereoisomers of selected compounds were obtained by chiral resolution and tested at the four human AR subtypes in their enantiopure forms (Table 6).
(§2) A brief description is given below. […] Non-specific binding was determined in the presence of 10 μM R-PIA. The reaction mixture was incubated at 25 °C for 60 min. […] The reaction mixture was incubated at 25 °C for 30 min. […] The reaction mixture was incubated at 25 °C for 30 min. […] Non-specific binding was determined in the presence of 100 μM R-PIA. […] After the incubation time, membranes were washed and filtered and radioactivity was detected in a MicroBeta TriLux reader (PerkinElmer).

hA2AAR = target: T2, hA2AAR (Homo sapiens, UniProt P29274); assay: Radioligand binding competition, [3H]ZM241385, membranes from HeLa-A2A cells; conditions: 1 μM, [3H]ZM241385, human HeLa cells, n = 2
T2 construct: expressed in transfected cells; host or cells: HeLa (HeLa-A2A) cell membranes
Protocol: as §1, §2

hA2BAR = target: T3, hA2BAR (Homo sapiens, UniProt P29275); assay: Radioligand binding competition, [3H]DPCPX, membranes from HEK-293-A2B cells; set-up: Exp. dG: unit not given here; conditions: for Ki: read-out: Ki hA2B; for Exp. dG: experimental binding free energy, Supplementary Table S3, unit not given (errors in kcal/mol); for % at 1 μM hA2B (percentage displacement of specific binding): [3H]DPCPX, human HEK-293 cells, n = 2
T3 construct: host or cells: HEK-293 (HEK-293-A2B) cell membranes
T3 sequence (P29275 1-332): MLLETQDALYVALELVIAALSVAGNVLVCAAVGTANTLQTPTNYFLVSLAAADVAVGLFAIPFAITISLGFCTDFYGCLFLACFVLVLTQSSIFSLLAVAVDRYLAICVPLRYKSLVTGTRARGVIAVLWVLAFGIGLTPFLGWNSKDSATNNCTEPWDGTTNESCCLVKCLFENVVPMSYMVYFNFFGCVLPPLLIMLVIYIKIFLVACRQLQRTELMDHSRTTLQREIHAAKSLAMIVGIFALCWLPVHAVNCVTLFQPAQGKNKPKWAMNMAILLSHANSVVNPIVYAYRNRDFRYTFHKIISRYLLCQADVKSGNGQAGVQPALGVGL
Protocol: as §1, §2

hA3AR = target: T4, hA3AR (Homo sapiens, UniProt P0DMS8); assay: Radioligand binding competition, [3H]NECA, membranes from HeLa-A3 cells; conditions: 1 μM, [3H]NECA, human HeLa cells, n = 2
T4 construct: expressed in transfected cells; host or cells: HeLa (HeLa-A3) cell membranes
T4 sequence (P0DMS8 1-318): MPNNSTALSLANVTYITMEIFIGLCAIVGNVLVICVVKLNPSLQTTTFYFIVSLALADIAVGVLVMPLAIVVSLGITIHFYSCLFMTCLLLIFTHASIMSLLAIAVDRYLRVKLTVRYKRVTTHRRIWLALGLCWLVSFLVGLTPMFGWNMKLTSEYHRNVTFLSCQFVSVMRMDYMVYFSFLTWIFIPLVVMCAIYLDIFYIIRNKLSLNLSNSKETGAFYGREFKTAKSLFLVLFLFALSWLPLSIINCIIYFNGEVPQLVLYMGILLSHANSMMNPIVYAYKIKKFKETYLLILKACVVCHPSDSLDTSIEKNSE
Protocol: as §1, §2

[1] = displacement of specific [3H]DPCPX binding in human HEK-293 cells, n = 3

T2 sequence (P29274 whole entry): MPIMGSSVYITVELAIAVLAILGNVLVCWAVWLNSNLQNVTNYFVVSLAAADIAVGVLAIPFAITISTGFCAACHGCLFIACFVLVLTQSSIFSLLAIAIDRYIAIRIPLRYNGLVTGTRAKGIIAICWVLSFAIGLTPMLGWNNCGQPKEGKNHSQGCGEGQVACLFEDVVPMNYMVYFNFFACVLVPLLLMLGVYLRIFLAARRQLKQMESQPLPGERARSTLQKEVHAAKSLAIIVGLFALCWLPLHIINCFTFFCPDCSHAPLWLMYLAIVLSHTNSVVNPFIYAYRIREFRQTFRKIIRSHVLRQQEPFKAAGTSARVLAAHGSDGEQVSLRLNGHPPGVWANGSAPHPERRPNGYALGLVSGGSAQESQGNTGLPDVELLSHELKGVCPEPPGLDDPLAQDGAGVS

Row | Structure (SMILES) | % at 1 μM hA1 (percentage displacement of specific binding) (hA1AR) [%] | % at 1 μM hA2A (percentage displacement of specific binding) (hA2AAR) [%] | Ki (hA2BAR; [1]) [nM] | Exp. dG (hA2BAR) | % at 1 μM hA3 (percentage displacement of specific binding) (hA3AR) [%] | % at 1 μM hA2B (percentage displacement of specific binding) (hA2BAR) [%] | Ki hA2B (hA2BAR; [1]) | Ki (hA2BAR) [nM]
1 | CCOC(=O)C1=C(C)Nc2nc3cc(Cl)ccc3n2C1c1ccsc1 (stereo not drawn) [16o] | 2 | 7 | 911 ± 14 | -8.235 | 8 | – | – | –
2 | CCOC(=O)C1=C(C)Nc2nc3ccc(Br)cc3n2C1c1cccs1 (stereo not drawn) [15u] | 1 | 5 | – | – | 4 | 1 | – | –
3 | CC1=C(C(=O)OC(C)C)C(c2ccoc2)n2c(nc3cc(Cl)c(Cl)cc32)N1 (stereo not drawn) [14l] | 4 | 31 | – | – | 8 | 36 | – | –
4 | CC1=C(C(=O)OC(C)C)C(c2ccoc2)n2c(nc3ccc(Cl)cc32)N1 (stereo not drawn) [15l] | 6 | 4 | – | – | 3 | 50 | – | –
5 | CCOC(=O)C1=C(C)Nc2nc3cc(Br)ccc3n2C1c1cccs1 (stereo not drawn) [16u] | 6 | 3 | – | – | 6 | 55 | – | –
6 | CC1=C(C(=O)OC(C)C)C(c2cccs2)n2c(nc3cc(F)c(F)cc32)N1 (stereo not drawn) [14f] | 1 | 1 | – | – | 10 | 1 | – | –
7 | CCOC(=O)C1=C(C)Nc2nc3cc(F)c(F)cc3n2C1c1cccs1 (stereo not drawn) [14e] | 2 | 3 | – | – | 5 | 25 | – | –
8 | CCOC(=O)C1=C(C)Nc2nc3cc(Cl)c(Cl)cc3n2C1c1ccco1 (stereo not drawn) [14i] | 2 | 5 | – | – | 1 | 9 | – | –
9 | CC1=C(C(=O)OC(C)C)C(c2ccsc2)n2c(nc3ccc(F)cc32)N1 (stereo not drawn) [15h] | 1 | 1 | 764 ± 11 | -8.34 | 1 | – | – | –
10 | CCOC(=O)C1=C(C)Nc2nc3cc(F)c(F)cc3n2C1c1ccoc1 (stereo not drawn) [14c] | 22 | 36 | 28.2 ± 0.8 | – | 17 | – | – | –
11 | CCOC(=O)C1=C(C)Nc2nc3cc(F)c(F)cc3n2C1c1ccco1 (stereo not drawn) [14a] | 1 | 2 | 44.1 ± 1.7 | – | 2 | – | – | –
12 | CCOC(=O)C1=C(C)Nc2nc3cc(F)ccc3n2C1c1ccsc1 (stereo not drawn) [16g] | 1 | 1 | 187 ± 2 | -9.172 | 3 | – | – | –
13 | CC1=C(C(=O)OC(C)C)C(c2cccs2)n2c(nc3ccc(Br)cc32)N1 (stereo not drawn) [15v] | 1 | 6 | – | – | 8 | 11 | – | –
14 | CCOC(=O)C1=C(C)Nc2nc3ccc(Cl)cc3n2C1c1ccco1 (stereo not drawn) [15i] | 26 | 2 | – | – | 4 | 18 | – | –
15 | CC1=C(C(=O)OC(C)C)[C@@H](c2ccco2)n2c(nc3ccccc32)N1 [(S)-ISAM-140] | 2 | 12 | 0.89 ± 0.2 | – | 4 | – | sub-nanomolar | –
16 | CC1=C(C(=O)OC(C)C)[C@H](c2ccco2)n2c(nc3cc(Br)ccc32)N1 [(R)-16r] | 12 | 7 | – | – | 2 | 35 | – | –
17 | CCOC(=O)C1=C(C)Nc2nc3cc(F)ccc3n2C1c1cocn1 (stereo not drawn) [18a] | 25 | 16 | 14.7 ± 1.1 | -10.68 | 16 | – | – | –
18 | CC1=C(C(=O)OC(C)C)[C@H](c2ccco2)n2c(nc3cc(Cl)ccc32)N1 [(R)-16j] | 7 | 37 | – | – | 5 | 51 | – | –
19 | CC1=C(C(=O)OC(C)C)[C@H](c2ccoc2)n2c(nc3cc(Cl)ccc32)N1 [(S)-16l] | 24 | 25 | – | – | 19 | 53 | – | –
20 | CCOC(=O)C1=C(C)Nc2nc3ccc(Cl)cc3n2C1c1ccoc1 (stereo not drawn) [15k] | 22 | 30 | 47.3 ± 1.9 | -9.987 | 3 | – | – | ~45
21 | CCOC(=O)C1=C(C)Nc2nc3cc(F)ccc3n2C1c1cccs1 (stereo not drawn) [16e] | 1 | 3 | 724 ± 8 | – | 3 | – | – | –
22 | CC1=C(C(=O)OC(C)C)C(c2ccsc2)n2c(nc3cc(Br)c(Br)cc32)N1 (stereo not drawn) [14x] | 4 | 1 | – | – | 8 | 9 | – | –
23 | CC1=C(C(=O)OC(C)C)C(c2ccsc2)n2c(nc3ccc(Br)cc32)N1 (stereo not drawn) [15x] | 1 | 1 | – | – | 1 | 10 | – | –
24 | CCOC(=O)C1=C(C)Nc2nc3cc(Br)c(Br)cc3n2C1c1ccsc1 (stereo not drawn) [14w] | 2 | 7 | – | – | 4 | 47 | – | –
25 | CC1=C(C(=O)OC(C)C)C(c2ccoc2)n2c(nc3cc(F)c(F)cc32)N1 (stereo not drawn) [14d] | 17 | 16 | 52.9 ± 1.5 | – | 20 | – | – | –
26 | CC1=C(C(=O)OC(C)C)C(c2ccsc2)n2c(nc3cc(F)c(F)cc32)N1 (stereo not drawn) [14h] | 1 | 3 | – | – | 4 | 43 | – | –

Source: paper PMC9841532, “Exploring the Effect of Halogenation in a Series of Potent and Selective A2B Adenosine Receptor Antagonists” (Journal of Medicinal Chemistry, 2022)
